Data from patent US8912120B2, “Herbicidal compositions comprising 4-amino-3-chloro-5-fluoro-6-(4-chloro-2-fluoro-3-methoxyphenyl) pyridine-2-carboxylic acid or a derivative thereof and synthetic auxin herbicides” (Dow AgroSciences, LLC., priority 2012, dated 2014).
Where two headings read alike, the source gives them in different places.

What was measured:
[1] = test system: DIGSA; assay: Example I: postemergence foliar-applied herbicidal mixtures, direct seeded rice, DIGSA; conditions: 21.2 gae/ha
Procedure: (§2) The soil matrix was contained in plastic pots with a volume of 1 quart and a surface area of 83.6 square centimeters (cm^2). […] The plants were grown for 8-22 days in a greenhouse with an approximate 14 h photoperiod which was maintained at about 29° C. during the day and 26° C. during the night. Nutrients (Peters Excel® 15-5-15 5-Ca 2-Mg and iron chelate) were applied in the irrigation solution as needed and water was added on a regular basis. Supplemental lighting was provided with overhead metal halide 1000-Watt lamps as necessary. The plants were employed for testing when they reached the first through fourth true leaf stage.
(§3) Treatments consisted of the acid or esters of 4-amino-3-chloro-5-fluoro-6-(4-chloro-2-fluoro-3-methoxy-phenyl)pyridine-2-carboxylic acid (Compound A), each formulated as an SC (suspension concentrate), and various herbicidal components alone and in combination. Forms of compound A were applied on an acid equivalent basis.
(§4) For treatments comprised of formulated compounds, measured amounts of compounds were placed individually in 25 mL glass vials and diluted in a volume of 1.25% (v/v) Agri-Dex® crop oil concentrated to obtain 12× stock solutions. […] Application solutions were prepared by adding an appropriate amount of each stock solution (e.g., 1 mL) and diluted to the appropriate final concentrations with the addition of 10 mL of an aqueous mixture of 1.25% (v/v) crop oil concentrate so that the final spray solutions contained 1.25+/−0.05% (v/v) crop oil concentrate.
(§5) All stock solutions and applications solutions were visually inspected for compound compatibility prior to application. Spray solutions were applied to the plant material with an overhead Mandel track sprayer equipped with a 8002E nozzles calibrated to deliver 187 L/ha over an application area of 0.503 m^2 at a spray height of 18 to 20 inches (46 to 50 cm) above average plant canopy height. Control plants were sprayed in the same manner with the solvent blank.
(§6) The treated plants and control plants were placed in a greenhouse as described above and watered by sub-irrigation to prevent wash-off of the test compounds. After approximately 3 weeks, the condition of the test plants as compared with that of the untreated plants was determined visually and scored on a scale of 0 to 100 percent where 0 corresponds to no injury or growth inhibition and 100 corresponds to complete kill.
(§7) Colby's equation was used to determine the herbicidal effects expected from the mixtures (Colby, S. R. 1967. Calculation of the synergistic and antagonistic response of herbicide combinations. Weeds 15:20-22).
(§8) The following equation was used to calculate the expected activity of mixtures containing two active ingredients, A and B: Expected=A+B−(A×B/100)
(§9) A=observed efficacy of active ingredient A at the same concentration as used in the mixture.
(§10) B=observed efficacy of active ingredient B at the same concentration as used in the mixture.

[2] = test system: CYPIR; assay: Example I: postemergence foliar-applied herbicidal mixtures, direct seeded rice, CYPIR; format: in vivo, Cyperus iria (rice flatsedge); conditions: 5.3 gae/ha
Procedure: as §2, §3, §4, §5, §6, §7, §8, §9, §10

[3] = test system: LEFCH; assay: Example II: in-water applied herbicidal mixtures, transplanted paddy rice, LEFCH; format: in vivo, Leptochloa chinensis (Chinese sprangletop)
How it was run: (§1)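 Greenhouse paddy pots of dried mud; rice seedlings at the second or third leaf stage were transplanted into mud 4 days before treatment. Osmocote 19:6:12 supplied nutrients. Solutions were pipetted individually and sequentially into the paddy water, with equal acetone and crop oil concentrate across treatments; controls got solvent blank.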

[4] = test system: ECHCG; assay: Example II: in-water applied herbicidal mixtures, transplanted paddy rice, ECHCG; format: in vivo, Echinochloa crus-galli (barnyardgrass); conditions: for Visual Weed Control (%) - 21 DAA ECHCG Obs / Visual Weed Control (%) - 22 DAA ECHCG Obs: in-water application
How it was run: as §1

[5] = test system: ECHOR; assay: Example II: in-water applied herbicidal mixtures, transplanted paddy rice, ECHOR; format: in vivo, Echinochloa oryzoides (early watergrass)
How it was run: as §1

[6] = test system: IPOHE; assay: Example I: postemergence foliar-applied herbicidal mixtures, direct seeded rice, IPOHE; format: in vivo, Ipomoea hederacea (ivyleaf morningglory)
Procedure: as §2, §3, §4, §5, §6, §7, §8, §9, §10

[7] = test system: ECHCG; assay: Example I: postemergence foliar-applied herbicidal mixtures, direct seeded rice, ECHCG
Procedure: as §2, §3, §4, §5, §6, §7, §8, §9, §10

[8] = test system: CYPRO; assay: Example II: in-water applied herbicidal mixtures, weed control in transplanted paddy rice (greenhouse), CYPRO; format: in vivo, Cyperus rotundus (purple nutsedge); conditions: for Visual Weed Control (%) - 20 DAA CYPRO Obs / Visual Weed Control (%) - 21 DAA CYPRO Obs / Visual Weed Control (%) - 22 DAA CYPRO Obs: in-water application
How it was run: as §1

[9] = test system: ECHCO; assay: Example I: postemergence foliar-applied herbicidal mixtures, direct seeded rice, ECHCO
Procedure: as §2, §3, §4, §5, §6, §7, §8, §9, §10

[10] = test system: LEFCH; assay: Example I: postemergence foliar-applied herbicidal mixtures, direct seeded rice, LEFCH; format: in vivo, Leptochloa chinensis (Chinese sprangletop)
Procedure: as §2, §3, §4, §5, §6, §7, §8, §9, §10

[11] = test system: SCPMA; assay: Example II: in-water applied herbicidal mixtures, transplanted paddy rice, SCPMA; format: in vivo; conditions: for Visual Weed Control (%) - 20 DAA SCPMA Obs: in-water application
How it was run: as §1

[12] = 8.75 gae/ha, in-water application
[13] = 17.5 gae/ha, in-water application
[14] = 35 gae/ha, in-water application
[15] = 42.4 gae/ha, in-water application

COc1c(Cl)ccc(-c2nc(C(=O)O)c(Cl)c(N)c2F)c1F [Compound A Acid, 4-amino-3-chloro-6-(4-chloro-2-fluoro-3-methoxyphenyl)-5-fluoropyridine-2-carboxylic acid]
Visual Weed Control (%) - 21 DAA DIGSA Obs [1]: 10%
Visual Weed Control (%) - 20 DAA CYPIR Obs [2]: 65%
Visual Weed Control (%) - 21 DAA LEFCH Obs [3, 12]: 0%
Visual Weed Control (%) - 25 DAA LEFCH Obs [3, 12]: 50%
Visual Weed Control (%) - 21 DAA LEFCH Obs [3, 13]: 0%
Visual Weed Control (%) - 25 DAA LEFCH Obs [3, 13]: 50%
Visual Weed Control (%) Obs ([3]; 22 DAA, 10.6 gae/ha): 20%
Visual Weed Control (%) Obs ([3]; 22 DAA, 21.2 gae/ha): 40%
Visual Weed Control (%) Obs ([3]; 22 DAA, 42.4 gae/ha): 60%
Visual Weed Control (%) Obs ([3]; 25 DAA, 8.75 gae/ha): 50%
Visual Weed Control (%) Obs ([3]; 25 DAA, 17.5 gae/ha): 50%
Visual Weed Control (%) Obs ([3]; 25 DAA, 35 gae/ha): 85%
Visual Weed Control (%) - 21 DAA LEFCH Obs [3, 14]: 30%
Visual Weed Control (%) - 25 DAA LEFCH Obs [3, 14]: 85%
Visual Weed Control (%) - 19 DAA LEFCH Obs [3, 15]: 10%
Visual Weed Control (%) - 21 DAA ECHCG Obs ([4]; 8.75 gae/ha): 0%
Visual Weed Control (%) - 22 DAA ECHCG Obs ([4]; 8.75 gae/ha): 0%
Visual Weed Control (%) - 21 DAA ECHCG Obs ([4]; 17.5 gae/ha): 0%
Visual Weed Control (%) - 22 DAA ECHCG Obs ([4]; 17.5 gae/ha): 20%
Visual Weed Control (%) Obs ([4]; 20 DAA, 10.6 gae/ha): 20%
Visual Weed Control (%) Obs ([4]; 20 DAA, 21.2 gae/ha): 20%
Visual Weed Control (%) Obs ([4]; 20 DAA, 42.4 gae/ha): 50%
Visual Weed Control (%) Obs ([4]; 21 DAA, 10.6 gae/ha): 0%
Visual Weed Control (%) Obs ([4]; 22 DAA, 8.75 gae/ha): 0%
Visual Weed Control (%) Obs ([4]; 22 DAA, 17.5 gae/ha): 20%
Visual Weed Control (%) Obs ([4]; 22 DAA, 21.2 gae/ha): 25%
Visual Weed Control (%) Obs ([4]; 22 DAA, 35 gae/ha): 25%
Visual Weed Control (%) Obs ([4]; 22 DAA, 42.4 gae/ha): 30%
Visual Weed Control (%) Obs ([4]; 25 DAA, 8.75 gae/ha): 0%
Visual Weed Control (%) Obs ([4]; 25 DAA, 17.5 gae/ha): 0%
Visual Weed Control (%) Obs ([4]; 25 DAA, 35 gae/ha): 70%
Visual Weed Control (%) - 21 DAA ECHCG Obs ([4]; 35 gae/ha): 20%
Visual Weed Control (%) - 22 DAA ECHCG Obs ([4]; 35 gae/ha): 25%
Visual Weed Control (%) - 20 DAA ECHOR Obs [5, 12]: 10%
Visual Weed Control (%) - 21 DAA ECHOR Obs [5, 12]: 10%
Visual Weed Control (%) - 22 DAA ECHOR Obs [5, 12]: 0%
Visual Weed Control (%) - 25 DAA ECHOR Obs [5, 12]: 0%
Visual Weed Control (%) - 20 DAA ECHOR Obs [5, 13]: 25%
Visual Weed Control (%) - 21 DAA ECHOR Obs [5, 13]: 15%
Visual Weed Control (%) - 22 DAA ECHOR Obs [5, 13]: 0%
Visual Weed Control (%) - 25 DAA ECHOR Obs [5, 13]: 0%
Visual Weed Control (%) - 20 DAA ECHOR Obs [5, 14]: 25%
Visual Weed Control (%) - 21 DAA ECHOR Obs [5, 14]: 20%
Visual Weed Control (%) - 22 DAA ECHOR Obs [5, 14]: 20%
Visual Weed Control (%) - 25 DAA ECHOR Obs [5, 14]: 40%
Visual Weed Control (%) - 19 DAA ECHOR Obs [5, 15]: 15%
pest or weed control at 42.4 g/ha ([5]; Echinochloa oryzoides, 456 h, 19 DAA, 42.4 gae/ha, read-out: Visual Weed Control (%) Obs): 15%
pest or weed control at 21.2 g/ha ([5]; Echinochloa oryzoides, 480 h, 20 DAA, 21.2 gae/ha, read-out: Visual Weed Control (%) Obs): 30%
pest or weed control at 84.8 g/ha ([5]; Echinochloa oryzoides, 480 h, 20 DAA, 84.8 gae/ha, read-out: Visual Weed Control (%) Obs): 33%
pest or weed control at 8.75 g/ha ([5]; Echinochloa oryzoides, 504 h, 21 DAA, 8.75 gae/ha, read-out: Visual Weed Control (%) Obs): 0%
pest or weed control at 17.5 g/ha ([5]; Echinochloa oryzoides, 504 h, 21 DAA, 17.5 gae/ha, read-out: Visual Weed Control (%) Obs): 0%
pest or weed control at 35 g/ha ([5]; Echinochloa oryzoides, 504 h, 21 DAA, 35 gae/ha, read-out: Visual Weed Control (%) Obs): 20%
pest or weed control at 42.4 g/ha ([5]; Echinochloa oryzoides, 504 h, 21 DAA, 42.4 gae/ha, read-out: Visual Weed Control (%) Obs): 15%
pest or weed control at 8.75 g/ha ([5]; Echinochloa oryzoides, 528 h, 22 DAA, 8.75 gae/ha, read-out: Visual Weed Control (%) Obs): 0%
pest or weed control at 17.5 g/ha ([5]; Echinochloa oryzoides, 528 h, 22 DAA, 17.5 gae/ha, read-out: Visual Weed Control (%) Obs): 0%
pest or weed control at 35 g/ha ([5]; Echinochloa oryzoides, 528 h, 22 DAA, 35 gae/ha, read-out: Visual Weed Control (%) Obs): 20%
pest or weed control at 8.75 g/ha ([5]; Echinochloa oryzoides, 600 h, 25 DAA, 8.75 gae/ha, read-out: Visual Weed Control (%) Obs): 0%
pest or weed control at 17.5 g/ha ([5]; Echinochloa oryzoides, 600 h, 25 DAA, 17.5 gae/ha, read-out: Visual Weed Control (%) Obs): 0%
pest or weed control at 35 g/ha ([5]; Echinochloa oryzoides, 600 h, 25 DAA, 35 gae/ha, read-out: Visual Weed Control (%) Obs): 40%
Visual Weed Control (%) - 20 DAA IPOHE Obs ([6]; 4.38 gae/ha): 10%
Visual Weed Control (%) - 20 DAA IPOHE Obs ([6]; 8.75 gae/ha): 15%
Visual Weed Control (%) - 20 DAA IPOHE Obs ([6]; 17.5 gae/ha): 30%
Visual Weed Control (%) - 21 DAA ECHCG Obs ([7]; 4.38 gae/ha): 15%
Visual Weed Control (%) - 21 DAA ECHCG Obs ([7]; 8.75 gae/ha): 50%
Visual Weed Control (%) - 19 DAA ECHCG Obs ([7]; 19.4 gae/ha): 80%
Visual Weed Control (%) - 20 DAA CYPRO Obs ([8]; 8.75 gae/ha): 0%
Visual Weed Control (%) - 21 DAA CYPRO Obs ([8]; 8.75 gae/ha): 0%
Visual Weed Control (%) - 22 DAA CYPRO Obs ([8]; 8.75 gae/ha): 0%
Visual Weed Control (%) - 20 DAA CYPRO Obs ([8]; 17.5 gae/ha): 70%
Visual Weed Control (%) - 21 DAA CYPRO Obs ([8]; 17.5 gae/ha): 30%
Visual Weed Control (%) - 22 DAA CYPRO Obs ([8]; 17.5 gae/ha): 20%
Visual Weed Control (%) Obs ([8]; 20 DAA, 10.6 gae/ha): 10%
Visual Weed Control (%) Obs ([8]; 20 DAA, 21.2 gae/ha): 20%
Visual Weed Control (%) Obs ([8]; 22 DAA, 8.75 gae/ha): 0%
Visual Weed Control (%) Obs ([8]; 22 DAA, 10.6 gae/ha): 0%
Visual Weed Control (%) Obs ([8]; 22 DAA, 17.5 gae/ha): 20%
Visual Weed Control (%) Obs ([8]; 22 DAA, 21.2 gae/ha): 40%
Visual Weed Control (%) Obs ([8]; 22 DAA, 35 gae/ha): 50%
Visual Weed Control (%) - 21 DAA CYPRO Obs ([8]; 35 gae/ha): 85%
Visual Weed Control (%) - 22 DAA CYPRO Obs ([8]; 35 gae/ha): 50%
Visual Weed Control (%) - 21 DAA ECHCO Obs ([9]; 4.38 gae/ha): 70%
Visual Weed Control (%) - 21 DAA ECHCO Obs ([9]; 8.75 gae/ha): 75%
Visual Weed Control (%) - 20 DAA LEFCH Obs ([10]; 4.38 gae/ha): 0%
Visual Weed Control (%) - 20 DAA LEFCH Obs ([10]; 5.3 gae/ha): 10%
Visual Weed Control (%) - 20 DAA LEFCH Obs ([10]; 8.75 gae/ha): 0%
Visual Weed Control (%) - 20 DAA LEFCH Obs ([10]; 17.5 gae/ha): 10%
Visual Weed Control (%) - 19 DAA LEFCH Obs ([10]; 19.4 gae/ha): 5%
Visual Weed Control (%) - 20 DAA SCPMA Obs ([11]; 8.75 gae/ha): 0%
Visual Weed Control (%) - 20 DAA SCPMA Obs ([11]; 17.5 gae/ha): 0%
Visual Weed Control (%) Obs ([11]; 20 DAA, 42.4 gae/ha): 0%
Visual Weed Control (%) Obs ([11]; 20 DAA, 84.8 gae/ha): 0%
Visual Weed Control (%) Obs ([11]; 21 DAA, 42.4 gae/ha): 0%
Visual Weed Control (%) Obs ([11]; 22 DAA, 8.75 gae/ha): 0%
Visual Weed Control (%) Obs ([11]; 22 DAA, 16 gae/ha): 0%
Visual Weed Control (%) Obs ([11]; 22 DAA, 17.5 gae/ha): 0%
Visual Weed Control (%) Obs ([11]; 22 DAA, 32 gae/ha): 0%
Visual Weed Control (%) Obs ([11]; 22 DAA, 35 gae/ha): 0%
Visual Weed Control (%) Obs ([11]; 22 DAA, 64 gae/ha): 30%
Visual Weed Control (%) - 20 DAA SCPMA Obs ([11]; 35 gae/ha): 0%
